Patent publication EP0134650B1, “High boiling solvent system for recovery of acetic acid from aqueous solutions” (CELANESE CORPORATION, priority 1983, dated 1985)

Experiment: Dissolved water in the solvent layer (extract) of acetic acid extraction
Type: physicochemical
Settings: Acid in solvent layer 16.85 wt.%
From the text: Generally as the distribution coefficient goes up, water solubility increases in the extract. The effect for methyl n-amyl ketone and diisobutyl ketone is as follows: […]

Row | Dissolved water in solvent layer, wt.% [wt.%] | Structure (SMILES)
1 | 3.0 | CC(C)CC(=O)CC(C)C [diisobutyl ketone]
2 | 5.0 | CCCCCC(C)=O [methyl n-amyl ketone]
